# Source: patent US20180055888A1, “COMPOSITIONS AND METHODS FOR ENHANCING THE THERAPEUTIC POTENTIAL OF STEM CELLS” (priority 2013, published 2018)
# Tests used:
# [1] = tested on: mouse model for hind limb peripheral ischemia; assay: Blood flow measurement (non-contact Laser Doppler), mouse hind limb ischemia model; assay type: in vivo, Mouse/Athymic Nude; conditions: for Rank of treatment group, Blood Flow: Day 35, imputed data, group median, rank 1 best of 10 groups
# Description: (§1) Disclosed herein is the testing of BM MSCs in a mouse model for hind limb peripheral ischemia. Peripheral artery disease (PAD) is a form of peripheral vascular diseases (PVD) in which there are partial or total blockage of blood supply to a limb, usually the leg, leading to impaired blood flow and hypoxia in the tissue. When PAD advances it reaches the stage of critical limb ischemia (CLI) with skin ulcerations, gangrene and unavoidable amputations. One of the most promising innovative treatments for diabetic vascular complications is stem cell-based products that enhance angiogenesis (TRefl-3) Hind limb ischemia animal models have been used to evaluate various therapeutic approaches addressing stem cell transplantation.
# Animal handling was according to the National Institute of Health (NIH) and the Association for Assessment and Accreditation of Laboratory Animal Care (AAALAC). Animals were housed in polysufone (PSU) cages (7-8/cage) measuring […] cm, with stainless steel top grill having facilities for pelleted food and drinking water in glass-clear polycarbonate bottle; bedding: steam sterilized clean paddy husk (Harlan, Sani-chip, Cat#: 106S8216) was used and bedding material was changed along with the cage at least twice a week. Animals were fed ad libitum a commercial rodent diet (Teklad Certified Global 18% Protein Diet cat #: 106S8216). Animals have free access to autoclaved and acidified drinking water (pH between 2.5 and 3.5) obtained from the municipality supply. Animals were housed under standard laboratory conditions, air conditioned and filtered (HEPA F6/6) with adequate fresh air supply (Minimum 15 air changes/hour). Animals were kept in a climate controlled environment. Temperatures range was 20-24° C. and RH range was 30-70% with 12 hours light and 12 hours dark cycle. Species/Strain: Mouse/Athymic Nude; Gender/Number/Age: Male/152/9-10 weeks; Source: Harlan Laboratories, Israel; Body weight: The average body weight was 28.4 g at study initiation (day 1). The minimum and maximum weights of the group were within a range of ±20% of group mean weight; Acclimation period: 5-10 days; Identification: Three position ear notching and cage cards. […] Surgery Day was defined as “DAY 0” in this study. On the day of surgery anesthesia was induced by 1.5 to 3.0% isofiurane, 1.5% N2O and 0.5% O2. […]
# (§2) Body weight was measured on study day −1 prior to the surgery and once weekly thereafter. Blood flow measurement: Blood flow in legs from both sides was measured with a non-contact Laser Doppier before surgery and on days: 1, 3, 7, 14, 21, 28 and 35 post operation. Blood flow measurements were expressed as the ratio of the flow in the ischemic limb to that in the normal limb (Goto et al. Tokai J Exp Clin Med., Vol. 31, No. 3, pp. 128-132, 2006). […]
# [2] = tested on: mouse model for hind limb peripheral ischemia; assay: In vivo assessment of limb function (graded scale), mouse hind limb ischemia model; design: species or system Mouse/Athymic Nude; conditions: Day 35, imputed data, group median, rank 1 best of 10 groups
# Description: Disclosed herein is the testing of BM MSCs in a mouse model for hind limb peripheral ischemia. Peripheral artery disease (PAD) is a form of peripheral vascular diseases (PVD) in which there are partial or total blockage of blood supply to a limb, usually the leg, leading to impaired blood flow and hypoxia in the tissue. When PAD advances it reaches the stage of critical limb ischemia (CLI) with skin ulcerations, gangrene and unavoidable amputations. […]
# In vivo assessment of limb function and Ischemic damage. Semi-quantitative assessment of impaired use of the ischemic limb was performed once a week post-surgery using the following scale (Stabile et al., Circulation. 2003; 15; 108{2):205-210). […]
# In vivo assessment of limb function. Semi-quantitative assessment of impaired use of the ischemic limb was performed on days 7 up to 35 by using graded functional scales. […]
# (§3) In further analyses the imputation of missing data is done in the following way: Blood Flow (%): Value of the first measurement after the surgery (assumption is that treatment failed so that there is no improvement beyond what was observed immediately after surgery); Ischemic Severity Score: 4=“Total Hind-Limb Loss” (the worst score possible); Limb Function 3=“Dragging of foot” (the worst score possible); Weight (g): The animal's lowest weight at any of the points measured up to and including the day of amputation.
# [3] = tested on: mouse model for hind limb peripheral ischemia; assay: Macroscopic evaluation of ischemic severity (morphological grades for necrotic area), mouse hind limb ischemia model; assay type: in vivo, Mouse/Athymic Nude; conditions: Day 35, imputed data, group median, rank 1 best of 10 groups
# Description: as §1
# Under anesthesia, the mouse was placed with ventral side up. A 0.5-1.0 cm incision was made in the skin in the inguinal area. The femoral artery was ligated twice with 6-0 silk thread and transected between the ligatures. […]
# as §2
# [4] = tested on: mouse model for hind limb peripheral ischemia; assay: Animal disposition (amputations, completion of 35 days follow-up), mouse hind limb ischemia model; assay type: in vivo; conditions: for Completed % (completed 35 days follow-up) / Imputed % (amputation after day 14, attributed to treatment failure): % of animals of the group; for Completed N (completed 35 days follow-up) / Imputed N (amputation after day 14, attributed to treatment failure): number of animals of the group
# Description: A major problem in pre-clinical studies is often the high drop-out rate of animals due to treatment related failure (amputations after day 14 post surgery) or unrelated to treatment (e.g. death during anesthesia, or amputations before day 14 post surgery). Only a few animals had to be excluded from statistical analysis due to the latter reason.
# as §1
# Under anesthesia, the mouse was placed with ventral side up. A 0.5-1.0 cm incision was made in the skin in the inguinal area. The femoral artery was ligated twice with 6-0 silk thread and transected between the ligatures. The wound was closed with 4-0 silk thread and the mouse was allowed to recover.
# On DAY 1, 24 hours post-surgery, each treated animal was injected intramuscular at two sites (the proximal and the distal side of the surgical wound) or intravenous into the tail vein. For intramuscular injection the animals were injected 50 μl at each site, total 100 μl per animal. For intravenous injection the animals were injected by 200 μl per animal.
# as §3
# [5] = tested on: mouse model for hind limb peripheral ischemia; assay: Ranking analysis / overall evaluation of all parameters, mouse hind limb ischemia model; assay type: in vivo, Mouse/Athymic Nude; conditions: for Factor 2: Difference between ranks of adjacent-ranked groups / Factor by which average rank differs from the top-ranked group (4) / Average Rank: Day 35, imputed data; for Average Rank: average over Blood Flow, Limb Function, Ischemic Severity Score
# Description: Study end points were: Clinical score; Body weight measurements; Blood flow measurements Ranking analysis: Each group was given a ranking from 1 to 10 on each of the first 3 endpoints measured (% Blood Flow, Limb Function and Ischemic Severity Score). Rank=1 is highest and Rank=10 is lowest. When two groups are tied, both receive the same rank “in the middle”; e.g. if two groups were tied in Rank=4, both received the score 4.5 (twice of which is the sum of ranks 4 and 5). For each endpoint, the median was computed for each group (the median was used to ensure that extreme value will not affect results). On each endpoint, groups were sorted by median and each given its respective rank. The average rank was computed for each group over all endpoints
# While paired comparisons were done, central results are presented in a way in that they are statistically relevant and can be clearly depicted in graphics. Data are consistent across endpoints and are consistent across different analysis. To obtain this picture we eliminated Weight from consideration. […] Each group was ranked on remaining 3 endpoints on day 35 and assessed Average Rank of groups—a measure combining results from all endpoints.
# Evaluating all Parameters Concurrently at Day 35. Procedure: For each parameter (Blood Flow (%), Limb Function and Ischemic Severity Score) the median in the group across all animals was computed. All the groups based on their median from 1 to 10, where 1 is best, were ranked on each of the following parameters: Blood Flow {%)—highest is 1, lowest is 10; Limb Function—highest is 10, lowest is 1 (worst category is 3, best is 0); Ischemic Severity Score—highest is 10, lowest is 1 (worst category is 4, best is 0); Finally, for each group we computed the average rank over the three parameters.
compound,measurement,setting,value
"Cc1ccc2c(c1)C(=O)C1(O)CCN(c3ccccc3)C1=N2 (centres unmarked) [DMEM + BB, blebbistatin]",regeneration of blood flow,"[1]; blebbistatin alone, without cells, FIGS. 1A-B",no effect on the regeneration of blood flow
same,"Rank of treatment group, Blood Flow",[1]; im,6.5
same,regeneration in blood flow over time,"[1]; intramuscular, FIG. 1A",marginally recovery effects
same,"Rank of treatment group, Blood Flow",[1]; iv,6.5
same,"Rank of treatment group, Limb Function",[2]; im,5
same,"Rank of treatment group, Limb Function",[2]; iv,5
same,"Rank of treatment group, Ischemic Severity Score",[3]; im,6
same,"Rank of treatment group, Ischemic Severity Score",[3]; iv,6
same,Completed % (completed 35 days follow-up),[4]; im,82.4%
same,"Imputed % (amputation after day 14, attributed to treatment failure)",[4]; im,0%
same,Completed N (completed 35 days follow-up),[4]; im,14
same,"Imputed N (amputation after day 14, attributed to treatment failure)",[4]; im,0
same,Completed % (completed 35 days follow-up),[4]; iv,93.3%
same,"Imputed % (amputation after day 14, attributed to treatment failure)",[4]; iv,0%
same,Completed N (completed 35 days follow-up),[4]; iv,14
same,"Imputed N (amputation after day 14, attributed to treatment failure)",[4]; iv,0
same,overall efficacy in the model,[5]; conclusion over endpoints,no beneficial effect
same,Factor 2: Difference between ranks of adjacent-ranked groups,[5]; im,0.8
same,Factor by which average rank differs from the top-ranked group (4),[5]; im,4.7
same,Average Rank,[5]; im,5.8
same,Factor 2: Difference between ranks of adjacent-ranked groups,[5]; iv,0.0
same,Factor by which average rank differs from the top-ranked group (4),[5]; iv,4.7
same,Average Rank,[5]; iv,5.8
